We go through four molecules from paper PMC6369734, “Spy vs. spy: selecting the best reporter for ^19F NMR competition experiments” (Chemical Communications (Cambridge, England), 2019).

For one test, the target named is T1, VHL (VBC complex) (Homo sapiens, UniProt P40337).
T1 construct: equimolar complex of pVHL54-213, eloB1-104 and; made in house; host or cells: E. coli
Put plainly: 19F CPMG NMR transverse relaxation rate (R2) and R2 contrast (C2) of spy molecule with and without protein. The class given is binding. The text has this:
Due to the large CSA of fluorine and the significant differences in the fluorine isotropic chemical shift (δF) between the free and bound states, the transverse relaxation rate (R2) is a well-established sensitive parameter to detect ligand binding.[4] Therefore, fluorine NMR experiments including a Carr–Purcell–Meiboom–Gill (CPMG) spin-echo filter[10] before acquisition were employed to monitor ligand binding to VHL by measuring peak intensity, as changes in other NMR parameters, such as chemical shift and peak width, were not as significant. The R2 values of the CF3 peak of each compound in the absence and in the presence of protein were determined by performing multiple ^19F CPMG experiments varying the CPMG filter (Fig. 2a). To quantify the shift in R2 upon binding, the R2 contrast (C2)[11] was determined. Ideally, a good spy molecule should have a large increase in R2 (fast relaxation) when protein is present, resulting in a large assay window for the competition experiments (Fig. 2b).
5. Measurement of the transverse relaxation rates by 19F CPMG NMR
All the NMR experiments were performed in a 500 MHz Bruker AVANCE N MR spectrometer equipped with a CPQCI -F cryoprobe. To measure the transverse relaxation rates (R 2), a solution of each spy molecule at 100 μM was prepared in 50 mM potassium phosphate monobasic (KH2PO4), pH 7.5, 100 mM NaCl, 1 mM TCEP, 2% (v/v) DMSO, 20% D2O and 10 µM trifluoroacetic acid (TFA). For each solution, 19F CPMG experiments […]
Due to the fast relaxation of molecules 21 and 22, these experiments were repeated with shorter CPMG filters (50, 100, 150, 200, 300, 400, 700 and 1000 ms). The fluorine peaks were integrated and plotted against the resp ective CPMG filters. The R 2 relaxation rates were obtained from fitting the data as a n exponential decay (GraphPad Prism 6) according to the equation below: [7]
Where I(t) is the 19F signal intensity or integral, t is the total CPMG filter in seconds, I(0) is the signal intensity when t = 0. To obtain the R2 upon addition of prot ein, all the experiments above were repeated in presence of VBC at 1 µM. Experiments were performed as triplicates and the R 2 contrasts (C2) were obtained according to the equation below: [8]
Where R2Free is the R2 obtained for the spy molecule free in solution and R2Observed is the R2 obtained with the spy molecule in presence of VBC. The raw data, fitting, R2 and C2 values for each spy molecule can be found in section 8.1. For the R2 measurements using molecule 19 at varied concentrations of spy molecule and protein, see section 8.2 . For the R2 measurements using spy molecules 6 and 11 (used to generate figures S 2, S3 and S4) see

For test [1], the target named is T2, VHL (VBC complex), Hyp site (Homo sapiens, UniProt P40337).
T2 construct: equimolar complex of pVHL54-213, eloB1-104 and; made in house; host or cells: E. coli
As to the kind of experiment: 19F NMR competition experiment, displacement of spy molecule 19. The note with it: 19 at 50 μM, VHL at 1.0 μM. In kind it is binding. The procedure:
Lastly, the utility and scope of using spy molecule 19 to quantify binding of competitors across a wide range of affinities was evaluated (Fig. 5). Five compounds were titrated against 19 at 50 μM and VHL at 1.0 μM. In all cases the displacement of the spy molecule was concentration-dependent and the Ki (inhibition constant) values were derived from the respective IC50 using a competitive binding model.[12] The measured binding affinities compared remarkably well with the respective values obtained by SPR across 4-log units. The same experiment was attempted with spy molecules 6 and 11 under the same conditions, and in these cases, the assay could not differentiate the binders as efficiently (ESI, ^† Fig. S2–S4), since this would require higher protein concentration.
6. Competition experiments by 19F NMR
As full measurements of R2 would be very time consuming, the competition experiments were performed using a single 19F CPMG experiment (decoupled) per sample with a fixed CPMG delay. To determine the best CPMG delay for a given spy molecule and assay condition, the procedure described in Figure S5 was developed based on the transverse relaxation rate equations.[7] By knowing the relaxation rates of the spy molecule free in solution and in presence of protein, the CPMG delay where the difference between the NMR peaks is maximum is hereon referred as dmax. The dmax for all the conditions tested for each spy molecule can be found in section 8, together with the respective values of R2 and C2.
Method for selecting the best CPMG delay for competition experiments. With the transverse relaxation rates of the spy molecule free in solution (R2F, resulting in the blue plot) and bound to protein (R2B, resulting in the red plot), the difference between the two curves is described by I(t)D (cyan curve). To obtain dmax, the delay where the difference curve reaches its maximum, the first derivative of I(t)D was obtained and equalled to 0, subsequently isolating t (CPMG filter). […]

Setting [2] is: Spy molecule 100 μM + VBC 1 μM, supplement 8.1.
The mark [3] stands for this setting: Spy molecule 100 μM, no protein.
The mark [4] stands for this setting: Spy molecule 19 at 10 µM, VBC 0.125 μM.
Setting [5] is: Spy molecule 19 at 10 µM, VBC 0.250 μM.
[6] abbreviates: Spy molecule 19 at 10 µM, VBC 0.500 μM.
Setting [7] is: Spy molecule 19 at 10 µM, VBC 1.000 μM.
Where [8] appears, read: Spy molecule 19 at 25 µM, VBC 0.125 μM.
The mark [9] stands for this setting: Spy molecule 19 at 25 µM, VBC 0.250 μM.
Setting [10] is: Spy molecule 19 at 25 µM, VBC 0.500 μM.
The mark [11] stands for this setting: Spy molecule 19 at 25 µM, VBC 1.000 μM.
The mark [12] stands for this setting: Spy molecule 19 at 50 µM, VBC 0.125 μM.
The mark [13] stands for this setting: Spy molecule 19 at 50 µM, VBC 0.250 μM.
[14] abbreviates: Spy molecule 19 at 50 µM, VBC 0.500 μM.
[15] abbreviates: Spy molecule 19 at 50 µM, VBC 1.000 μM.
[16] abbreviates: spy concentration not given, VBC 0.125 μM.
Setting [17] is: spy concentration not given, VBC 0.250 μM.
The mark [18] stands for this setting: spy concentration not given, VBC 0.500 μM.
Where [19] appears, read: spy concentration not given, VBC 1.000 μM.

Each structure is given as a SMILES string.

Consider `O=C(NCc1ccc(Br)cc1)C1CC(O)CN1C(=O)CC(F)(F)F` (stereo not drawn) [Compound 19], for which the R2 at VHL (VBC complex) (Spy molecule 100 μM + VBC 1 μM) was 5.096 ± 0.186 s⁻¹; at VHL (VBC complex) (setting [3]), 1.526 ± 0.041 s⁻¹; at VHL (VBC complex) (Spy molecule 19 at 10 µM, VBC 0.000 μM), 1.464 ± 0.096 s⁻¹; at VHL (VBC complex) (setting [4]) it was 2.346 ± 0.193 s⁻¹; at VHL (VBC complex) (setting [5]), 2.807 ± 0.131 s⁻¹; on VHL (VBC complex) (setting [6]) it was 4.288 ± 0.304 s⁻¹. Besides, the R2 on VHL (VBC complex) (setting [7]) was determined as 7.974 ± 0.727 s⁻¹; on VHL (VBC complex) (Spy molecule 19 at 25 µM, VBC 0.000 μM) it was 1.582 ± 0.049 s⁻¹; at VHL (VBC complex) (setting [8]), 2.107 ± 0.095 s⁻¹; on VHL (VBC complex) (setting [9]), 2.811 ± 0.156 s⁻¹; at VHL (VBC complex) (setting [10]), 4.008 ± 0.200 s⁻¹; at VHL (VBC complex) (setting [11]) it was 6.934 ± 0.348 s⁻¹. Further, the R2 on VHL (VBC complex) (Spy molecule 19 at 50 µM, VBC 0.000 μM) is 1.475 ± 0.059 s⁻¹; at VHL (VBC complex) (setting [12]), 1.969 ± 0.071 s⁻¹; at VHL (VBC complex) (setting [13]), 2.316 ± 0.168 s⁻¹; on VHL (VBC complex) (setting [14]) it was 3.857 ± 0.121 s⁻¹; on VHL (VBC complex) (setting [15]), 6.424 ± 0.262 s⁻¹; at VHL (VBC complex) (spy concentration not given, VBC 0.000 μM), 1.392 ± 0.101 s⁻¹. Also, the R2 at VHL (VBC complex) (setting [16]) is 2.337 ± 0.335 s⁻¹; at VHL (VBC complex) (setting [17]) it was 3.678 ± 0.489 s⁻¹; at VHL (VBC complex) (setting [18]), 4.255 ± 0.566 s⁻¹; on VHL (VBC complex) (setting [19]), 7.063 ± 1.128 s⁻¹. For the same molecule, the “R2 contrast – C2” value is 70.1 ± 4.5% on VHL (VBC complex) (setting [2]); 35.0 ± 8.9% on VHL (VBC complex) (setting [4]); 45.6 ± 5.3% at VHL (VBC complex) (setting [5]); 64.4 ± 8.5% on VHL (VBC complex) (setting [6]); 80.9 ± 11.7% on VHL (VBC complex) (setting [7]); 27.6 ± 5.1% on VHL (VBC complex) (setting [8]). Moreover, the “R2 contrast – C2” value is recorded as 45.7 ± 6.3% on VHL (VBC complex) (setting [9]); 61.9 ± 5.9% on VHL (VBC complex) (setting [10]); 78.0 ± 6.4% at VHL (VBC complex) (setting [11]); 22.5 ± 4.2% on VHL (VBC complex) (setting [12]); 34.1 ± 7.9% on VHL (VBC complex) (setting [13]); 60.4 ± 3.8% on VHL (VBC complex) (setting [14]). The “R2 contrast – C2” value at VHL (VBC complex) (setting [15]) was 76.2 ± 5.2%; at VHL (VBC complex) (setting [16]), 34.7 ± 15.3%; at VHL (VBC complex) (setting [17]), 58.5 ± 15.5%; on VHL (VBC complex) (setting [18]) it was 64.1 ± 15.8%; at VHL (VBC complex) (setting [19]), 78.4 ± 20.3%.
As to `CC(C)(C)CC(=O)N1C[C@H](O)C[C@H]1C(=O)NCc1ccc(Br)c(C(F)(F)F)c1` [Compound 3], the R2 at VHL (VBC complex) (Spy molecule 100 μM + VBC 1 μM) worked out at 1.847 ± 0.033 s⁻¹; at VHL (VBC complex) (setting [3]), 1.326 ± 0.025 s⁻¹. Also, at VHL (VBC complex) (setting [2]), the “R2 contrast – C2” value worked out at 28.2 ± 2.3%. Also, the “Displacement of spy molecule 19” value in test [1] is recorded as “concentration dependent”.
For `CC(=O)N1C[C@H](O)C[C@H]1C(=O)NCc1ccc(Br)cc1C(F)(F)F` [Compound 10] the same measures were 2.596 ± 0.046 s⁻¹, 1.249 ± 0.018 s⁻¹, 51.9 ± 2.1% and “concentration dependent”.
For `CC(=O)NC(C(=O)N1CC(O)CC1C(=O)NCc1ccc(Br)cc1C(F)(F)F)C(C)(C)C` (stereo not drawn) [Compound 12] the same measures were 1.637 ± 0.028 s⁻¹, 1.512 ± 0.029 s⁻¹, 7.6 ± 2.4% and “concentration dependent”.
